Our source for the EC50 values is patent US9133158B2, “Bicyclic dihydroisoquinoline-1-one derivatives” (Hoffmann-La Roche Inc., priority 2011, dated 2015).

In one assay the target is T1, human CYP11B2 (Homo sapiens, UniProt P19099).
T1 construct: expressed in transfected cells
T1 sequence (P19099 25-503): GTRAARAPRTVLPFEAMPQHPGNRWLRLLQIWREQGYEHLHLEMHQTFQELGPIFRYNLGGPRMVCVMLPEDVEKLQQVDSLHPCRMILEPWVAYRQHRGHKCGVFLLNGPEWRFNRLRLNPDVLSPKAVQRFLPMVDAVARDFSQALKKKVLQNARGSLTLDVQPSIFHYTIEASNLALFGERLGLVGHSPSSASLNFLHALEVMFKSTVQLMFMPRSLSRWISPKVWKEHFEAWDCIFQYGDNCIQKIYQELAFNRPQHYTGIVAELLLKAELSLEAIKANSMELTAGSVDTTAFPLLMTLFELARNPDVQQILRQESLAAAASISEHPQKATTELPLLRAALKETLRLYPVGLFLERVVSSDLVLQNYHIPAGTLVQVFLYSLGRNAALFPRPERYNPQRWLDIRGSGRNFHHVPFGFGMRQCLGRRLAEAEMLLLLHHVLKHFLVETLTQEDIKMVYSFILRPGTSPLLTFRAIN
Put plainly: G-402 cellular enzyme assay, human CYP11B2 (aldosterone release, HTRF). It counts as cell-based. As to conditions: G-402 cells, 1 μM Deoxycorticosterone. The method in brief:
(§1)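 G-402 cells stably expressing human CYP11B1 or CYP11B2, in DMEM/F12 with 2.5% charcoal-treated FCS, were incubated 16 h with test compound and substrate (1 μM 11-deoxycortisol for CYP11B1; 1 μM deoxycorticosterone for CYP11B2). Cortisol or aldosterone in supernatant was quantified by HTRF; EC50 from 4-parameter MMF fit.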
(TR-FRET usually uses a lanthanide donor and a delayed reading to cut background.)

In the next assay the target is T2, human CYP11B1 (Homo sapiens, UniProt P15538).
T2 construct: expressed in transfected cells
T2 sequence (P15538 25-503): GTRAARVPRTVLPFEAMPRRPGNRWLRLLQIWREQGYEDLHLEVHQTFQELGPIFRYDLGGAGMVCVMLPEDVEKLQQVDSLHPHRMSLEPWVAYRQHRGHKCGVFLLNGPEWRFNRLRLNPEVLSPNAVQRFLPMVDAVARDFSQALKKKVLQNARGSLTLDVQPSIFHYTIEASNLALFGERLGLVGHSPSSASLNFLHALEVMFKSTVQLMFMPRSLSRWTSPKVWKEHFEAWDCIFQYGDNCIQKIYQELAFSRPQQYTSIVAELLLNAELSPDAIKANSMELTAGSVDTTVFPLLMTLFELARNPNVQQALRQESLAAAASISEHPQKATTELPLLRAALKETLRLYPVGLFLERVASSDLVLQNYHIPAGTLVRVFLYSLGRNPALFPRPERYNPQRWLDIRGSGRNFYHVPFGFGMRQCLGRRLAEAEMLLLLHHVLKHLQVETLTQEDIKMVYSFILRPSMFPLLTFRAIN
Put plainly: G-402 cellular enzyme assay, human CYP11B1 (cortisol release, HTRF). The following applies: G-402 cells, 1 μM Deoxycortisol. It counts as cell-based. The gist of the method:
as §1

In general, EC50 refers to the midpoint of the concentration-response curve. On to `CC[C@@H]1c2cc(Cl)ccc2C(=O)N1c1cncc2c1CC[C@H]2NS(C)(=O)=O` (single isomer, unassigned) [Example 369, N-[(R or S)-4-((R or S)-5-Chloro-3-ethyl-1-oxo-1,3-dihydro-isoindol-2-yl)-6,7-dihydro-5H-[2]pyrindin-7-yl]-methanesulfonamide], for which the EC50 at human CYP11B2 is 40.3 nM; at human CYP11B1, 12400 nM.

As for `CC(c1cncc(N2CCc3cc(Cl)ccc3C2=O)c1)n1nccn1` (stereo not shown) [Example 269, 6-Chloro-2-[5-(1-[1,2,3]triazol-2-yl-ethyl)-pyridin-3-yl]-3,4-dihydro-2H-isoquinolin-1-one], the half-maximal effective concentration (EC50) at human CYP11B2 was 46.2 nM; at human CYP11B1, 425 nM.

Take `O=C1c2ccc(Cl)cc2CCN1c1cncc(Cc2ccc(N3CCOCC3)nc2)c1` [Example 207, 6-Chloro-2-[5-(6-morpholin-4-yl-pyridin-3-ylmethyl)-pyridin-3-yl]-3,4-dihydro-2H-isoquinolin-1-one]: the concentration giving a half-maximal response (EC50) at human CYP11B2 turned out to be 2.8 nM; at human CYP11B1 it was 18.2 nM.

In the case of `CCC1c2cc(Cl)ccc2C(=O)N1c1cncc(F)c1` (stereo not shown) [Example 126, 5-Chloro-3-ethyl-2-(5-fluoro-pyridin-3-yl)-2,3-dihydro-isoindol-1-one], the concentration giving a half-maximal response (EC50) was found to be 37.9 nM at human CYP11B2 and 3560 nM on human CYP11B1.

As for `CC1(C)c2cc(Cl)ccc2C(=O)N1c1cncc(CNC(=O)c2ccncc2Cl)c1` [Example 437, 3-Chloro-N-[5-(6-chloro-1,1-dimethyl-3-oxo-1,3-dihydro-isoindol-2-yl)-pyridin-3-ylmethyl]-isonicotinamide], the values for the half-maximal effective concentration (EC50) on human CYP11B2 and on human CYP11B1 were 77.6 nM and 1640 nM, respectively.

Regarding `C[C@@H](O)c1cncc(N2CCc3cc(Cl)ccc3C2=O)c1` [Example 14, 6-Chloro-2-[5-((R)-1-hydroxy-ethyl)-pyridin-3-yl]-3,4-dihydro-2H-isoquinolin-1-one], the EC50 at human CYP11B2 was 55 nM; on human CYP11B1, 1100 nM.

For `O=C1c2ccc(Cl)cc2C(C2CC2)N1c1cncc(OC(F)F)c1` (stereo not shown) [Example 302, 5-Chloro-3-cyclopropyl-2-(5-difluoromethoxy-pyridin-3-yl)-2,3-dihydro-isoindol-1-one], the figures for the EC50 at human CYP11B2 and at human CYP11B1 were 93.2 nM and 5190 nM, respectively.

Consider `O=C1c2ccc(Cl)cc2CCN1c1cncc(CN2CCOCC2)c1` [Example 154, 6-Chloro-2-(5-morpholin-4-ylmethyl-pyridin-3-yl)-3,4-dihydro-2H-isoquinolin-1-one], for which the half-maximal effective concentration (EC50) on human CYP11B2 came out at 74.7 nM; at human CYP11B1, 193 nM.

In the case of `C[C@H]1Cc2cc(Cl)ccc2C(=O)N1c1cccnc1` [Example 92, (S)-6-Chloro-3-methyl-2-pyridin-3-yl-3,4-dihydro-2H-isoquinolin-1-one], the results for the EC50 at human CYP11B2 and on human CYP11B1 were 268 nM and 11400 nM, respectively.

Consider `CCC(=O)NCc1cncc(N2C(=O)c3ccc(F)cc3C2(C)C)c1` [Example 398, N-[5-(6-Fluoro-1,1-dimethyl-3-oxo-1,3-dihydro-isoindol-2-yl)-pyridin-3-ylmethyl]-propionamide], for which the concentration giving a half-maximal response (EC50) on human CYP11B2 amounted to 281 nM; at human CYP11B1, 2300 nM.

Consider `O=C1c2ccc(Cl)cc2C2(CC2)N1c1cncc(OC(F)F)c1` [Example 291, 6′-Chloro-2′-[5-(difluoromethoxy)pyridin-3-yl]spiro[cyclo-propane-1,1′-isoindol]-3′(2′H)-one], for which the EC50 on human CYP11B2 was 3.2 nM; on human CYP11B1, 122 nM.

In the case of `Cn1ccnc1C(=O)NCc1cncc(N2C(=O)c3ccc(Cl)cc3C2(C)C)c1` [Example 432, 1-Methyl-1H-imidazole-2-carboxylic acid [5-(6-chloro-1,1-dimethyl-3-oxo-1,3-dihydro-isoindol-2-yl)-pyridin-3-ylmethyl]-amide], the results for the EC50 on human CYP11B2 and on human CYP11B1 were 22.2 nM and 1450 nM, respectively.

On to `CC1(C)c2cc(Cl)ccc2C(=O)N1c1cncc(F)c1` [Example 129, 5-Chloro-2-(5-fluoro-pyridin-3-yl)-3,3-dimethyl-2,3-dihydro-isoindol-1-one], for which the EC50 on human CYP11B2 turned out to be 63.6 nM; on human CYP11B1, 3160 nM.

Take `O=C1c2ccc(Cl)cc2CCN1c1cncc(CN2CC3(COC3)C2)c1` [Example 171, 6-Chloro-2-[5-(2-oxa-6-aza-spiro[3.3]hept-6-ylmethyl)-pyridin-3-yl]-3,4-dihydro-2H-isoquinolin-1-one]: the values for the 50% effective concentration (EC50) at human CYP11B2 and on human CYP11B1 were 17.2 nM and 88.9 nM, respectively.

Regarding `O=C1CCCN1Cc1cncc(N2Cc3cc(Cl)ccc3C2=O)c1` [Example 112, 5-Chloro-2-[5-(2-oxo-pyrrolidin-1-ylmethyl)-pyridin-3-yl]-2,3-dihydro-isoindol-1-one], the EC50 on human CYP11B2 was found to be 674 nM; at human CYP11B1, 12000 nM.

Take `CCC(=O)NCc1cncc(N2C(=O)c3ccc(Cl)cc3C2(C)C)c1` [Example 397, N-[5-(6-Chloro-1,1-dimethyl-3-oxo-1,3-dihydro-isoindol-2-yl)-pyridin-3-ylmethyl]-propionamide]: the EC50 turned out to be 282 nM on human CYP11B2 and 7950 nM on human CYP11B1.

For the molecule `O=C1c2ccc(Cl)cc2CCN1c1cncc(OC(F)F)c1` [Example 60, 6-Chloro-2-(5-difluoromethoxy-pyridin-3-yl)-3,4-dihydro-2H-isoquinolin-1-one], the concentration for a half-maximal effect (EC50) came to 70.7 nM at human CYP11B2 and 794 nM at human CYP11B1.

With `Cc1ccncc1C(=O)NCc1cncc(N2C(=O)c3ccc(Cl)cc3C2(C)C)c1` [Example 440, N-[5-(6-Chloro-1,1-dimethyl-3-oxo-1,3-dihydro-isoindol-2-yl)-pyridin-3-ylmethyl]-4-methyl-nicotinamide], the results for the 50% effective concentration (EC50) at human CYP11B2 and on human CYP11B1 were 17.6 nM and 1270 nM, respectively.

Turning to `CC(=O)N[C@H]1CCCc2c1cncc2N1C(=O)c2ccc(Cl)cc2[C@H]1C` (single isomer, unassigned) [Example 363, N-[(S or R)-4-((R or S)-5-Chloro-3-methyl-1-oxo-1,3-dihydro-isoindol-2-yl)-5,6,7,8-tetrahydro-isoquinolin-8-yl]-acetamide], the EC50 on human CYP11B2 came out at 171 nM; on human CYP11B1 it was 2330 nM.

As for `CCC(=O)NCc1cncc(N2C(=O)c3ccc(Cl)cc3C2CC)c1` (single isomer, unassigned) [Example 399, N-[5-((S or R)-5-Chloro-3-ethyl-1-oxo-1,3-dihydro-isoindol-2-yl)-pyridin-3-ylmethyl]-propionamide], the concentration for a half-maximal effect (EC50) amounted to 313 nM at human CYP11B2 and 11300 nM on human CYP11B1.

Consider `CCC(=O)NC1CCCc2c1cncc2N1Cc2cc(Cl)ccc2C1=O` (single isomer, unassigned) [Example 314, N-[(R or S)-4-(5-Chloro-1-oxo-1,3-dihydro-isoindol-2-yl)-5,6,7,8-tetrahydro-isoquinolin-8-yl]-propionamide], for which the concentration for a half-maximal effect (EC50) on human CYP11B2 is 28.2 nM; on human CYP11B1, 5230 nM.

`CCS(=O)(=O)N(C)Cc1cncc(N2C(=O)c3ccc(F)cc3C23CC3)c1` [Example 394, N-{[5-(6′-Fluoro-3′-oxospiro [cyclopropane-1,1′-isoindol]-2′(3′H)-yl)pyridin-3-yl]methyl}-N-methylethane-sulfonamide]: the half-maximal effective concentration (EC50) was 45.6 nM at human CYP11B2 and 2920 nM at human CYP11B1.

For `CC1(COCc2cncc(N3CCc4cc(Cl)ccc4C3=O)c2)CC1` [Example 200, 6-Chloro-2-[5-(1-methyl-cyclopropylmethoxymethyl)-pyridin-3-yl]-3,4-dihydro-2H-isoquinolin-1-one], the results for the 50% effective concentration (EC50) on human CYP11B2 and at human CYP11B1 were 32.5 nM and 315 nM, respectively.

Consider `O=C1c2ccc(Cl)cc2CCN1c1cncc(-c2ccc(Cl)c(F)c2)c1` [Example 240, 6-Chloro-2-[5-(4-chloro-3-fluoro-phenyl)-pyridin-3-yl]-3,4-dihydro-2H-isoquinolin-1-one], for which the values for the EC50 on human CYP11B2 and at human CYP11B1 were 115 nM and 3270 nM, respectively.

On to `CC1(C)c2cc(Cl)ccc2C(=O)N1c1cncc(OC2CC2)c1` [Example 306, 5-Chloro-2-(5-cyclopropoxy-pyridin-3-yl)-3,3-dimethyl-2,3-dihydro-isoindol-1-one], for which the results for the EC50 at human CYP11B2 and on human CYP11B1 were 5.8 nM and 114 nM, respectively.

For the molecule `CC[C@H]1c2cc(Cl)ccc2C(=O)N1c1cncc2c1CCC[C@@H]2NC(C)=O` (single isomer, unassigned) [Example 356, N-[(S or R)-4-((S or R)-5-Chloro-3-ethyl-1-oxo-1,3-dihydro-isoindol-2-yl)-5,6,7,8-tetrahydro-isoquinolin-8-yl]-acctamide], the values for the EC50 on human CYP11B2 and at human CYP11B1 were 2000 nM and 737 nM, respectively.
